Data reported in publication PMC11550998, “Novel 5-HT7 receptor antagonists modulate intestinal immune responses and reduce severity of colitis” (American Journal of Physiology - Gastrointestinal and Liver …, 2024).

What was measured:
[1] = molecular target: T1, human 5HT7A-HEK membranes (Homo sapiens, UniProt P34969); test: 5-HT7 binding assay ([3H]LSD displacement); settings: Cheng-Prusoff
T1 construct: expressed in transfected cells; host or cells: HEK cells (membranes)
Method: Solutions of test compounds were a 10 mM stock in dimethyl sulfoxide (DMSO) and then further diluted 1:200 in assay buffer [50 mM tris(hydroxymethyl)aminomethane (TRIS), pH 7.5, 10 mM MgCl2, 0.5 mM ethylenediaminetetraacetic acid (EDTA)] to 50 µM (0.5% DMSO). Ten dilutions of the test compound in 0.5% DMSO/assay buffer were prepared in a twofold serial dilution to yield final compound concentrations ranging from 10 µM to 19.5 nM in the assay. In a 96-well polypropylene plate, 50 µL of assay buffer was added to all wells, and then 50 µL of 0.5% DMSO/assay buffer or 50 µM chlorpromazine or serial dilutions of test compounds were added to selected wells. To all wells, 100 µL of 0.2 mg/mL human 5HT7A-HEK membranes and 50 µL of 5 nM [^3H]lysergic acid diethylamide (LSD) in assay buffer were added. Reactions were incubated at room temperature for 1.5 h and harvested by rapid filtration onto 0.3% polyethyleneimine-treated GF/B filter plates using a Brandel harvester. […] Filter plates were dried overnight, scintillant was added, and the radioactivity retained on the filters was counted on a TopCount scintillation counter (PerkinElmer). Half maximal inhibitory concentration (IC50) and inhibitory constant (Ki) of test compounds were calculated using GraphPad’s Prism 5 nonlinear sigmoidal curve-fitting program. […] Ki values were calculated using the Cheng-Prusoff equation.

[2] = Microsomal stability assay, human liver microsomes; type: in vitro ADME; settings: 37°C, NADPH regenerating system, read-out: T1/2 HLM
Method: Test compounds were assessed for microsomal stability by incubating at 37°C in the presence of mouse or human liver microsomes and an NADPH regenerating system as described by Yang et al. ([16]). Microsomal protein content was adjusted to ensure accurate rates of substrate consumption. Analysis was performed by LC-MS/MS analysis.

[3] = Mouse in vivo pharmacokinetic studies; parameters: species or system C57BL/6 male mice; settings: for bioavailability / AUC / Cmax / Tmax / clearance / half-life: male; for bioavailability: C57BL/6, mouse, plasma, oral, read-out: %F (oral bioavailability); for AUC / Cmax / Tmax / clearance / half-life: C57BL/6, plasma
Method: Adult C57BL/6 male mice (2–4 mo old, body weight ranging from 20 to 25 g, Charles River Laboratories) were maintained under controlled temperature (23 ± 1°C) and lighting (lights on 6:00 AM–6:00 PM) with food and water provided ad libitum. Pharmacokinetic studies were performed either via intravenous bolus infusion or through oral gavage. Mice were administered each compound intravenously by tail vein injection (1 mg/kg) or orally through gavage (5 mg/kg). Serial blood samples were collected at 5, 15, and 30 min and 1, 2, 4, 8, and 24 h after intravenous administration, and at 15, 30 min, and 1, 2, 4, 8, and 24 h after oral gavage administration. All blood samples were centrifuged at 1,500 g for 5 min. Pharmacokinetic study procedures were approved by Temple University’s Institutional Animal Care and Usage Committee and were in accordance with National Institutes of Health (NIH) guidelines. For all in vivo efficacy studies, experiments were approved by the animal ethics committee of McMaster University and conducted under Canadian guidelines for animal research.
Plasma concentrations were determined using an LC-MS/MS method. Briefly, 100-µL acetonitrile with an internal standard solution (Diltiazem, 0.1 μg/mL) was added to 50-µL plasma or tissue homogenate. After being vortexed for 1 min, the mixture was centrifuged at 3,000 g for 5 min. LC-MS/MS analysis was carried out using a high-performance liquid chromatography system consisting of an Agilent 1100 system interfaced to an API4000 SCIEX triple-quadrupole tandem mass spectrometer (Applied Biosystems/MDS Sciex, Foster City, CA). MC-170073, MC-230078, MC-230079, and the internal standard were separated by using a Phenomenex (Torrance, CA) C18 column (2.0 × 50 mm). The mobile phase consisted of solvent A (0.1% formic acid in water) and solvent B (0.1% formic acid in acetonitrile). A linear gradient of solvent B from 5 to 95% was used. The detection and quantification of analytes were performed with the m/z transition 347/191 for MC-170073, MC-230078, and MC-230079, and m/z 415/178 for diltiazem.

[4] = Administration of antagonist in the absence of DSS; type: in vivo, mice; settings: Supplemental Fig. S2
[5] = molecular target: 5-HT1A, 5-HT1B, 5-HT1D, 5-HT1E, 5-HT2A, 5-HT2B, 5-HT2C, 5-HT3, 5-HT4, 5-HT5A, and 5-HT6; test: Off-target assessment at other 5-HT receptors (PDSP); type: binding; settings: 1B, 1D, 1E, 2A, 2B, 2C, 3, 4, 5A, 6
Method: In vitro assessments of MC-170073, MC-20078, and MC-230079 activity at the following targets were determined using the assay systems available through the Psychoactive Drug Screening Program (PDSP). Detailed protocols for each assay are available at https://pdsp.unc.edu/pdspweb/?site=assays. Receptors 5-HT1A, 5-HT1B, 5-HT1D, 5-HT1E, 5-HT2A, 5-HT2B, 5-HT2C, 5-HT3, 5-HT5A, 5-HT6, 5-HT7, α1A, α1B, α1D, α2A, α2B, α2C, benzodiazepine, β1, β2, β3, GABA-A, H1, H2, H3, H4, M1, M2, M3, M4, M5, δ-opioid, κ-opioid, and µ-opioid and transporters dopamine, norepinephrine, and serotonin were evaluated.

[6] = 5 mg/kg, 5 mg/kg oral vs 1 mg/kg IV

T1 sequence (P34969 1-445 isoform P34969-2): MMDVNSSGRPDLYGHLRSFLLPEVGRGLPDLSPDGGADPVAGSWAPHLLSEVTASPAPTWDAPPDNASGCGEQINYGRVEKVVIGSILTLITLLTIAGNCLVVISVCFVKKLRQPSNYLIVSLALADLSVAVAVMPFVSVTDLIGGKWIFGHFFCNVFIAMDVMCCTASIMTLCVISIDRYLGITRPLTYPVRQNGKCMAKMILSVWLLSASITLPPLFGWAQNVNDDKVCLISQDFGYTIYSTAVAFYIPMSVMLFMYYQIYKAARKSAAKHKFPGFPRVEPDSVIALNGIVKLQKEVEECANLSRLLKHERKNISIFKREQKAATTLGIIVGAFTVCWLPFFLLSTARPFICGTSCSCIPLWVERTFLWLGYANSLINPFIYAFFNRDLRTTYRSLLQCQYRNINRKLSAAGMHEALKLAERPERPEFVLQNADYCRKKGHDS

| Compound | Ki [1] [nM] | half-life [2] [h] | %F (oral bioavailability) ([3]; 5 mg/kg oral vs 1 mg/kg IV) [%] | bioavailability [3, 6] [%] | AUC ([3]; IV, 1 mg/kg) [ng·h/mL] | Cmax ([3]; IV, 1 mg/kg) [ng/mL] | Tmax ([3]; IV, 1 mg/kg) [h] | clearance ([3]; IV, 1 mg/kg) [mL/min] | half-life ([3]; IV, 1 mg/kg) [h] | AUC ([3]; oral gavage, 5 mg/kg) [ng·h/mL] | Cmax ([3]; oral gavage, 5 mg/kg) [ng/mL] | Tmax ([3]; oral gavage, 5 mg/kg) [h] | half-life ([3]; oral gavage, 5 mg/kg) [h] | CL ([3]; oral gavage, 5 mg/kg) [L/h] | effect on body weight change, histology, or proinflammatory cytokine production [4] | Ki [5] [nM] |
| --- | --- | --- | --- | --- | --- | --- | --- | --- | --- | --- | --- | --- | --- | --- | --- | --- |
| CCC1(CC)CC(CCN2CCN(c3ccc(O)cc3)CC2)OC1=O (stereo not shown) [MC-170073] | 89 | > 1 | 17.5 | 17 | 142 | 81 | 0.25 | 2.08 | 4.4 | 124 | 49 | 0.25 | 3.4 | 0.73 | no significant effect | > 10000 |
| CCC1(CC)C[C@@H](CCN2CCN(c3ccc(O)cc3)CC2)OC1=O [MC-230078] | 106 | 1 | – | 13.7 | 277 | 527 | 0.083 | 1.4 | 3.97 | 190 | 123 | 0.5 | 3.78 | 0.511 | no significant effect | > 10000 |
